Reference: ChEMBL document CHEMBL4706599, “Discovery of novel quinazoline derivatives as potent PI3Kδ inhibitors with high selectivity” (Eur J Med Chem, 2020)

What was measured:
Ramos = test: Antiproliferative activity against human Ramos cells assessed as inhibition of cell growth after 48 hrs by MTT assay; assay type: functional, cell-based
Raji [1] = test: Antiproliferative activity against human Raji cells assessed as inhibition of cell growth after 48 hrs by MTT assay; assay type: functional, cell-based
[2] = biological target: T1, Phosphatidylinositol 4,5-bisphosphate 3-kinase catalytic subunit delta isoform (Homo sapiens, UniProt O00329); test: Inhibition of PI3Kdelta (unknown origin) by ADP-Glo kinase assay
T1 sequence (O00329 whole entry): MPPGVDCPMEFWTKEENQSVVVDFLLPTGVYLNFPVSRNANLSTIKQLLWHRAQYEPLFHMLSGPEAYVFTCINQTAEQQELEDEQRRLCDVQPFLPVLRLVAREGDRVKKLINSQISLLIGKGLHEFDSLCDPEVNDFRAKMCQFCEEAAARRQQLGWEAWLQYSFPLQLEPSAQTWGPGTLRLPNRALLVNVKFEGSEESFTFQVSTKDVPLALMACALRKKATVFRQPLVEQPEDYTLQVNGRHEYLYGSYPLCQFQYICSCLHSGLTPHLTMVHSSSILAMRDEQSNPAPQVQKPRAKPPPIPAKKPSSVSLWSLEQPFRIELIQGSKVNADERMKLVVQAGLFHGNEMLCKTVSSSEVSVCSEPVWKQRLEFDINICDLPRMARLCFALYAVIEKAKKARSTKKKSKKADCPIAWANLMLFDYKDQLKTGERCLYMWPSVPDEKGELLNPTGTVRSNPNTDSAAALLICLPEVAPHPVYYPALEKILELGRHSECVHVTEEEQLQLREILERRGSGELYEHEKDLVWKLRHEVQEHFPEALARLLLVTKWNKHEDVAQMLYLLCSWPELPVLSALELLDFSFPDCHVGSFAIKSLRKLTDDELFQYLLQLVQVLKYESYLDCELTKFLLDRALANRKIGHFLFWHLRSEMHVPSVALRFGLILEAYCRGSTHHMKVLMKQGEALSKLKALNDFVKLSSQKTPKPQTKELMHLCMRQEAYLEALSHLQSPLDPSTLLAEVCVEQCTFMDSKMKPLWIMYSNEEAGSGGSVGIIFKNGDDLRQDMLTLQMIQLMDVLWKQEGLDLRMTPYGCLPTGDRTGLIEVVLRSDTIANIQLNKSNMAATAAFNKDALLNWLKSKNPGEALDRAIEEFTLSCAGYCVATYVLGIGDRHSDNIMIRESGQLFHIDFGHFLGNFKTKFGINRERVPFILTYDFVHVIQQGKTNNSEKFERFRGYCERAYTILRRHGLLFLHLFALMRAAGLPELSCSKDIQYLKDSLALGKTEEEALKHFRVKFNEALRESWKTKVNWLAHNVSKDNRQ

[3] = biological target: T2, Phosphatidylinositol 4,5-bisphosphate 3-kinase catalytic subunit delta isoform (Homo sapiens) (UniProt O00329); test: Inhibition of PI3Kdelta (unknown origin) at 200 nM by ADP-Glo kinase assay relative to control
T2 sequence (whole entry): T1 sequence (O00329 whole entry)

Raji [4] = test: Induction of apoptosis in human Raji cells assessed as late apoptotic cells at 5 uM measured after 24 hrs by Annexin V-FITC/PI staining based flow cytometry (reference value: 2.11 %); assay type: functional
[5] = biological target: Phosphatidylinositol 4,5-bisphosphate 3-kinase catalytic subunit beta isoform (Homo sapiens, UniProt P42338); test: Inhibition of PI3Kbeta (unknown origin)
Raji [6] = test: Antiproliferative activity against human Raji cells assessed as reduction in cell viability after 24 hrs by MTT assay; assay type: functional, cell-based; conditions: dose 0.2-15 µM
[7] = Metabolic stability in rat liver microsomes assessed as compound remaining at 1 uM measured up to 45 mins in presence of NADPH by LC/MS analysis; assay type: ADME, Microsome; conditions: 0.75 h
[8] = Metabolic stability in human liver microsomes assessed as compound remaining at 1 uM measured up to 45 mins in presence of NADPH by LC/MS analysis; assay type: ADME, Microsome; conditions: 0.75 h
Raji [9] = test: Antiproliferative activity against human Raji cells assessed as reduction in cell viability at 10 uM after 24 hrs by MTT assay; assay type: functional
Raji [10] = test: Inhibition of PI3K/Akt signalling pathway in human Raji cells assessed as reduction in Akt phosphorylation at Ser473 residue after 24 hrs by Western blot analysis; assay type: cell-based; conditions: dose 1-1000 nM
Homo sapiens [11] = organism: Homo sapiens; test: Selectivity index, ratio of IC50 for PI3Kgamma (unknown origin) to IC50 for PI3Kdelta (unknown origin)
Homo sapiens [12] = organism: Homo sapiens; test: Selectivity index, ratio of IC50 for PI3Kalpha (unknown origin) to IC50 for PI3Kdelta (unknown origin)
Homo sapiens [13] = organism: Homo sapiens; test: Selectivity index, ratio of IC50 for PI3Kbeta (unknown origin) to IC50 for PI3Kdelta (unknown origin)
[14] = biological target: Phosphatidylinositol 4,5-bisphosphate 3-kinase catalytic subunit alpha isoform (Homo sapiens, UniProt P42336); test: Inhibition of PI3Kalpha (unknown origin)
[15] = biological target: Phosphatidylinositol 4,5-bisphosphate 3-kinase catalytic subunit gamma isoform (Homo sapiens, UniProt P48736); test: Inhibition of PI3Kgamma (unknown origin)
Raji [16] = test: Antiproliferative activity against human Raji cells assessed as reduction in cell viability at 10 uM by MTT assay; assay type: functional, cell-based; conditions: TDE = time-dependent effect

Sequence of Phosphatidylinositol 4,5-bisphosphate 3-kinase catalytic subunit gamma isoform (P48736 whole entry, canonical isoform): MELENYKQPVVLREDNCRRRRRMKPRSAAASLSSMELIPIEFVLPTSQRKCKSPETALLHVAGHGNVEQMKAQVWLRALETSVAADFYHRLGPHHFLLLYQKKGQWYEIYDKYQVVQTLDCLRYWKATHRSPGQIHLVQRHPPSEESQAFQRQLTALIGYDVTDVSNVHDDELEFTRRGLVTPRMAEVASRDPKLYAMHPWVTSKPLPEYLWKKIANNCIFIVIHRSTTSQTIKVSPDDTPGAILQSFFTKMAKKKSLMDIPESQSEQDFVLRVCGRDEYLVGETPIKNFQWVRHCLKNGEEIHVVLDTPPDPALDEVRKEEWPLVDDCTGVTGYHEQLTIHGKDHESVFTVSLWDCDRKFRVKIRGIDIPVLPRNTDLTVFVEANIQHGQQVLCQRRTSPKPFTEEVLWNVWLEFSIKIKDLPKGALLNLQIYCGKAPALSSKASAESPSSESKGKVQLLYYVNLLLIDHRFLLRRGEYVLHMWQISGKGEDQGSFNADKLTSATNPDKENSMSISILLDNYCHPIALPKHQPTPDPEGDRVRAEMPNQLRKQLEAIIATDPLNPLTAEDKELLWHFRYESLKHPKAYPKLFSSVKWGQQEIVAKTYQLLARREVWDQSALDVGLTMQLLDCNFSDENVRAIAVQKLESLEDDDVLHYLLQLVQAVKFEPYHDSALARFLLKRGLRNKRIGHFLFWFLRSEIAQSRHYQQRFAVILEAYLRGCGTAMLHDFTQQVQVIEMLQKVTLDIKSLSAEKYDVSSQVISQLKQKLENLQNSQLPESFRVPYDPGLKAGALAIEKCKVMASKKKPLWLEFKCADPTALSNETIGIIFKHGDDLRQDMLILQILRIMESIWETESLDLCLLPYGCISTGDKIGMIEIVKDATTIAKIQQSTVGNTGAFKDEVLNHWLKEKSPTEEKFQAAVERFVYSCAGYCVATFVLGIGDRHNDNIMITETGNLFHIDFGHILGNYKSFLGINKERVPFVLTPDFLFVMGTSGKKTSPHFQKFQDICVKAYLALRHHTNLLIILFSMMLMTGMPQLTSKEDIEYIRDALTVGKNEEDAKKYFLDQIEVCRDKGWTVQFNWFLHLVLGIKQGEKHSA
Sequence of Phosphatidylinositol 4,5-bisphosphate 3-kinase catalytic subunit beta isoform (P42338 whole entry, canonical isoform): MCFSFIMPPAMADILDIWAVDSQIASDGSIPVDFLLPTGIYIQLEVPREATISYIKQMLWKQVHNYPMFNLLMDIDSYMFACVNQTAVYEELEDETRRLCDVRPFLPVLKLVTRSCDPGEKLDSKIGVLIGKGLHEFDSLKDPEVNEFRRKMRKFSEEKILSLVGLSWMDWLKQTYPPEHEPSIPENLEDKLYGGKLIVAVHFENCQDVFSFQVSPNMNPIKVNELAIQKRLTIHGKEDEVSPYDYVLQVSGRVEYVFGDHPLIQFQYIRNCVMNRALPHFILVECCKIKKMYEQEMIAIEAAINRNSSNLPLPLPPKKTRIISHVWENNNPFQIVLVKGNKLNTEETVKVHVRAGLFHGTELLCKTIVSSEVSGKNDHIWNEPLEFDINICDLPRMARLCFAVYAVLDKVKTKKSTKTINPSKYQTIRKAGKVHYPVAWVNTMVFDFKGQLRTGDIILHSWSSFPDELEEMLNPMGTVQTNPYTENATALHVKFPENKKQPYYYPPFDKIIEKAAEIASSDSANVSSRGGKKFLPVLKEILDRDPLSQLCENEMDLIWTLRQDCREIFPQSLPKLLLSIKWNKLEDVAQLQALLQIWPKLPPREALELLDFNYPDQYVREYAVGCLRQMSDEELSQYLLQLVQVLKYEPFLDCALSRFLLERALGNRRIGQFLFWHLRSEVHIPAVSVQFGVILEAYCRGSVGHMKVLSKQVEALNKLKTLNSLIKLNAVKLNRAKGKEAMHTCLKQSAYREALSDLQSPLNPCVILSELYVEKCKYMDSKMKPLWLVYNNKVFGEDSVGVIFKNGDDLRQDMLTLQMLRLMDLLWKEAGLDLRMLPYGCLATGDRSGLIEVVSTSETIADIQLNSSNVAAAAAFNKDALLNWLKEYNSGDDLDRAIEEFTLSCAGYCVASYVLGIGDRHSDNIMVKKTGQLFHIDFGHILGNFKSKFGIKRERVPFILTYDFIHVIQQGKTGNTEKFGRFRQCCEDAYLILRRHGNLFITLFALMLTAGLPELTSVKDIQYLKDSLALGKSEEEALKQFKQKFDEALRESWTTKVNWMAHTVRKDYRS
Sequence of Phosphatidylinositol 4,5-bisphosphate 3-kinase catalytic subunit alpha isoform (P42336 whole entry, canonical isoform): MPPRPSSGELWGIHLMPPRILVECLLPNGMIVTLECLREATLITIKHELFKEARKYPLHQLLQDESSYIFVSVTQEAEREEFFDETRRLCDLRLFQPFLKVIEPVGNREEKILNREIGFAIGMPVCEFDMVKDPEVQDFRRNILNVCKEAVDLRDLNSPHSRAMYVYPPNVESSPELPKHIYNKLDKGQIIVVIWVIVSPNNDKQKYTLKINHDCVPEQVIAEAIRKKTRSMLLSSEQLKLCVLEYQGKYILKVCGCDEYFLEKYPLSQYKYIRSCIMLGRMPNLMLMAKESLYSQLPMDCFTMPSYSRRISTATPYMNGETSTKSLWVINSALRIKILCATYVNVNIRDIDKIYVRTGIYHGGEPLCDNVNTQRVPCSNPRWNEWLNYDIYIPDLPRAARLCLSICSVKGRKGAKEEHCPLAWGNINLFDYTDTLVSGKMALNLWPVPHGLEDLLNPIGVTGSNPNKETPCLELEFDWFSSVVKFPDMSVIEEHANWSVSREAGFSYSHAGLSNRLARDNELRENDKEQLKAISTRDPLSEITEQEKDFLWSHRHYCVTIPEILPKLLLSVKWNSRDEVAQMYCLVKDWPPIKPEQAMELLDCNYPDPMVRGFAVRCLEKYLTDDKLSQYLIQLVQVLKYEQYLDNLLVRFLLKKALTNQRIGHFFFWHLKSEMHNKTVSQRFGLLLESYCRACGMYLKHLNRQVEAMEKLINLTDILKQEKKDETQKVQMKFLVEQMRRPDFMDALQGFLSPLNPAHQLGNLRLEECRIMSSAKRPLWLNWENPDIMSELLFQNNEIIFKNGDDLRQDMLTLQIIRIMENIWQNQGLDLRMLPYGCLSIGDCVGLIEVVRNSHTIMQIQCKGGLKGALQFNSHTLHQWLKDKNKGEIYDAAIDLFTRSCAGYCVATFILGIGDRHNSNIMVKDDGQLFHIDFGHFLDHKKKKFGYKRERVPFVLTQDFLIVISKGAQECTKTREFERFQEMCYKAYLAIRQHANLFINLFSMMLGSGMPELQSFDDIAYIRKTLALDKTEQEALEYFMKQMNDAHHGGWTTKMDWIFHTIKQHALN

IC50 (Ramos) | IC50 (Raji [1]) | IC50 [2] | inhibition [3] | Compound | further results
9.4 µM | 14.8 µM | – | 41.8% | C=CC(=O)Nc1cccc(Oc2ncnc3ccc(-c4cccnc4)cc23)c1 | –
– | 11.6 µM | 0.104 µM | 64.6% | C=CC(=O)Nc1cccc(Nc2ncnc3ccc(-c4ccc(Cl)nc4)cc23)c1 | –
0.6 µM | 0.3 µM | – | 66.3% | Cn1c(=O)n(-c2ccc(C(C)(C)C#N)cc2)c2c3cc(-c4cnc5ccccc5c4)ccc3ncc21 [DACTOLISIB] | Activity (Raji [4]): 10.24%
> 50 µM | – | 0.41 µM | – | CC#CC(=O)Nc1cccc(Nc2ncnc3ccc(-c4cnc5ccccc5c4)cc23)c1 | –
10.1 µM | – | – | 33.1% | C=CC(=O)Nc1cccc(Oc2ncnc3ccc(-c4ccc(Cl)nc4)cc23)c1 | –
> 50 µM | 3.5 µM | 0.117 µM | – | C=CC(=O)Nc1cccc(Nc2ncnc3ccc(-c4cnc5ccccc5c4)cc23)c1 | –

The remaining lines, values behind:

Compound | IC50 (Ramos) | IC50 (Raji [1]) | IC50 [2] | inhibition [3] | further results
C/C=C/C(=O)Nc1cccc(Nc2ncnc3ccc(-c4cnc5ccccc5c4)cc23)c1 | 5 µM | 2.7 µM | 0.129 µM | – | –
CCC(=O)Nc1cccc(Nc2ncnc3ccc(-c4cnc5ccccc5c4)cc23)c1 | – | – | 0.021 µM | – | –
C=CC(=O)Nc1cc(Nc2ncnc3ccc(-c4cnc5ccccc5c4)cc23)ccc1C | 5.4 µM | 8.5 µM | 0.0275 µM | – | IC50 [5]: 19.6 µM; Activity (Raji [6]): Dose-dependent effect; Stabilty [7]: Unstable; Stabilty [8]: Unstable; Activity (Raji [9]): >50%; inhibition (Raji [10]): Dose-dependent effect; Ratio IC50 (Homo sapiens [11]): 45; Ratio IC50 (Homo sapiens [12]): 20; Ratio IC50 (Homo sapiens [13]): 300; IC50 [14]: 0.561 µM; Activity (Raji [4]): 10.78%; IC50 [15]: 1.25 µM; Activity (Raji [16]): Tde
C=CC(=O)Nc1cccc(Oc2ncnc3ccc(-c4ccc(F)nc4)cc23)c1 | 11 µM | 11 µM | – | 23.4% | –
C=CC(=O)N1CCc2ccc(Nc3ncnc4ccc(-c5cnc6ccccc6c5)cc34)cc21 | 17 µM | 0.9 µM | 0.495 µM | – | –
C=CC(=O)Nc1cccc(Oc2ncnc3ccc(-c4cnc5ccccc5c4)cc23)c1 | 10.6 µM | 8.6 µM | – | 29.5% | –
C=CC(=O)Nc1cccc(Nc2ncnc3ccc(-c4ccc(F)nc4)cc23)c1 | – | > 50 µM | – | 46.6% | –
